{"source": "patent US20020137929A1", "about": "“1 - (3-heterocyclylphenyl) isothiourea, -isourea, -guanidine and -amidine herbicidal agents” (Intellectual Property Department, BASF Aktiengesellschaft, priority 1998, published 2002)", "key": {"MOOVA (Monochoria)": {"system": "MOOVA (Monochoria)", "assay": "Preemergence weed control under flooded paddy conditions", "type": "in vivo, Monochoria vaginalis", "conditions": "rated 3-4 weeks after treatment", "in_short": "(§1)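 Visual injury scored 0-9 against control three to four weeks post-treatment, greenhouse-grown. Application: acetone/water (50/50) solutions dosed directly into flood water (1.5-3 cm over silt loam, planted top 0.5 cm), roughly 0.0313 to 0.500 kg/ha active ingredient.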"}, "[1]": {"system": "IPOHE (Morningglory, Ivyleaf)", "assay": "Preemergence herbicidal evaluation", "type": "in vivo, Ipomoea hederacea", "conditions": "rated 4-5 weeks after treatment", "in_short": "(§2)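 Steps: mix seeds into potting soil; plant atop ~1 inch soil; spray compound in aqueous acetone (~0.0156-0.500 kg/ha equivalent); maintain in greenhouse with watering; rate visually 0-9 versus control at 4-5 weeks.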"}, "AMBEL (Ragweed, Common) [2]": {"system": "AMBEL (Ragweed, Common)", "assay": "Postemergence herbicidal evaluation", "type": "in vivo, Ambrosia artemisifolia", "conditions": "postemergence", "in_short": "(§3)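 Herbicidal effect was judged by eye on a 0–9 scale covering stand, vigor, deformity, size and chlorosis, compared with controls, four to five weeks after seedlings about two weeks old were sprayed (40 psi, ~0.0156–0.500 kg/ha).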"}, "ECHCG (Barnyardgrass)": {"system": "ECHCG (Barnyardgrass)", "assay": "Postemergence herbicidal evaluation", "type": "in vivo, Echinochloa crus-galli", "conditions": "postemergence", "in_short": "as §3"}, "ABUTH (Velvetleaf)": {"system": "ABUTH (Velvetleaf)", "assay": "Preemergence herbicidal evaluation", "type": "in vivo, Abutilon theophrasti", "conditions": "rated 4-5 weeks after treatment", "in_short": "as §2"}, "AMBEL (Ragweed, Common) [3]": {"system": "AMBEL (Ragweed, Common)", "assay": "Preemergence herbicidal evaluation", "type": "in vivo, Ambrosia artemisifolia", "conditions": "rated 4-5 weeks after treatment", "in_short": "as §2"}, "[4]": {"system": "GLXMAW (Soybean, Williams)", "assay": "Postemergence herbicidal evaluation", "type": "in vivo, Glycine max, (L.) Merr. cv Williams", "conditions": "postemergence", "in_short": "as §3"}, "[5]": {"system": "CHEAL (Lambsquarters, Common)", "assay": "Postemergence herbicidal evaluation", "type": "in vivo, Chenopodium album", "conditions": "postemergence", "in_short": "as §3"}, "CASOB (Sicklepod) [6]": {"system": "CASOB (Sicklepod)", "assay": "Postemergence herbicidal evaluation", "type": "in vivo, Cassia obtusifolia", "conditions": "postemergence", "in_short": "as §3"}, "CASOB (Sicklepod) [7]": {"system": "CASOB (Sicklepod)", "assay": "Preemergence herbicidal evaluation", "type": "in vivo, Cassia obtusifolia", "conditions": "rated 4-5 weeks after treatment", "in_short": "as §2"}, "[8]": {"system": "GLXMAW (Soybean, Williams)", "assay": "Preemergence herbicidal evaluation", "type": "in vivo, Glycine max, (L.) Merr. cv Williams", "conditions": "rated 4-5 weeks after treatment", "in_short": "as §2"}, "[9]": {"system": "TRZAWR (Wheat, Winter, cv Riband)", "assay": "Postemergence herbicidal evaluation", "type": "in vivo, Triticum aestivum", "conditions": "postemergence", "in_short": "as §3"}, "[10]": {"system": "SAGPY (Arrowhead (Pygmaea))", "assay": "Preemergence weed control under flooded paddy conditions", "type": "in vivo, Sagittaria pygmaea", "conditions": "rated 3-4 weeks after treatment", "in_short": "as §1"}, "ORYSAT (Rice, Tebonnet)": {"system": "ORYSAT (Rice, Tebonnet)", "assay": "Preemergence herbicidal evaluation", "type": "in vivo, Oryza sativa, (L.) Tebonnet", "conditions": "rated 4-5 weeks after treatment", "in_short": "as §2"}, "[11]": {"system": "CHEAL (Lambsquarters, Common)", "assay": "Preemergence herbicidal evaluation", "type": "in vivo, Chenopodium album", "conditions": "rated 4-5 weeks after treatment", "in_short": "as §2"}, "[12]": {"system": "IPOHE (Morningglory, Ivyleaf)", "assay": "Postemergence herbicidal evaluation", "type": "in vivo, Ipomoea hederacea", "conditions": "postemergence", "in_short": "as §3"}}, "data": [{"smiles": "CCOC(=O)CN1C(=O)C(C)SC1=Nc1cc(-n2c(=O)cc(C(F)(F)F)n(C)c2=O)c(F)cc1Cl", "note": "(centres unmarked) [Compound 12]", "values": [{"measurement": "Herbicidal rating MOOVA", "setting": "MOOVA (Monochoria); 0.0313 kg/ha", "result": 9.0}, {"measurement": "Herbicidal rating MOOVA", "setting": "MOOVA (Monochoria); 0.0625 kg/ha", "result": 9.0}, {"measurement": "Herbicidal rating MOOVA", "setting": "MOOVA (Monochoria); 0.1250 kg/ha", "result": 9.0}, {"measurement": "Herbicidal rating MOOVA", "setting": "MOOVA (Monochoria); 0.2500 kg/ha", "result": 9.0}, {"measurement": "IPOHE preemergence herbicidal rating", "setting": "[1]; rate 0.0156 kg/ha", "result": 4.5}, {"measurement": "IPOHE preemergence herbicidal rating", "setting": "[1]; rate 0.0313 kg/ha", "result": 9.0}, {"measurement": "IPOHE preemergence herbicidal rating", "setting": "[1]; rate 0.0625 kg/ha", "result": 9.0}, {"measurement": "IPOHE preemergence herbicidal rating", "setting": "[1]; rate 0.1250 kg/ha", "result": 9.0}, {"measurement": "IPOHE preemergence herbicidal rating", "setting": "[1]; rate 0.2500 kg/ha", "result": 9.0}, {"measurement": "AMBEL herbicidal rating", "setting": "AMBEL (Ragweed, Common) [2]; rate 0.0156 kg/ha", "result": 7.0}, {"measurement": "AMBEL herbicidal rating", "setting": "AMBEL (Ragweed, Common) [2]; rate 0.0313 kg/ha", "result": 9.0}, {"measurement": "AMBEL herbicidal rating", "setting": "AMBEL (Ragweed, Common) [2]; rate 0.0625 kg/ha", "result": 7.0}, {"measurement": "AMBEL herbicidal rating", "setting": "AMBEL (Ragweed, Common) [2]; rate 0.1250 kg/ha", "result": 9.0}, {"measurement": "ECHCG herbicidal rating", "setting": "ECHCG (Barnyardgrass); rate 0.0156 kg/ha", "result": 0.0}, {"measurement": "ECHCG herbicidal rating", "setting": "ECHCG (Barnyardgrass); rate 0.0313 kg/ha", "result": 1.0}, {"measurement": "ECHCG herbicidal rating", "setting": "ECHCG (Barnyardgrass); rate 0.0625 kg/ha", "result": 4.0}, {"measurement": "ECHCG herbicidal rating", "setting": "ECHCG (Barnyardgrass); rate 0.1250 kg/ha", "result": 9.0}, {"measurement": "ABUTH preemergence herbicidal rating", "setting": "ABUTH (Velvetleaf); rate 0.0156 kg/ha", "result": 7.5}, {"measurement": "ABUTH preemergence herbicidal rating", "setting": "ABUTH (Velvetleaf); rate 0.0313 kg/ha", "result": 9.0}, {"measurement": "ABUTH preemergence herbicidal rating", "setting": "ABUTH (Velvetleaf); rate 0.0625 kg/ha", "result": 9.0}, {"measurement": "ABUTH preemergence herbicidal rating", "setting": "ABUTH (Velvetleaf); rate 0.1250 kg/ha", "result": 9.0}, {"measurement": "ABUTH preemergence herbicidal rating", "setting": "ABUTH (Velvetleaf); rate 0.2500 kg/ha", "result": 9.0}, {"measurement": "AMBEL preemergence herbicidal rating", "setting": "AMBEL (Ragweed, Common) [3]; rate 0.0156 kg/ha", "result": 0.0}, {"measurement": "AMBEL preemergence herbicidal rating", "setting": "AMBEL (Ragweed, Common) [3]; rate 0.0313 kg/ha", "result": 4.5}, {"measurement": "AMBEL preemergence herbicidal rating", "setting": "AMBEL (Ragweed, Common) [3]; rate 0.0625 kg/ha", "result": 9.0}, {"measurement": "AMBEL preemergence herbicidal rating", "setting": "AMBEL (Ragweed, Common) [3]; rate 0.1250 kg/ha", "result": 9.0}, {"measurement": "AMBEL preemergence herbicidal rating", "setting": "AMBEL (Ragweed, Common) [3]; rate 0.2500 kg/ha", "result": 9.0}, {"measurement": "GLXMAW herbicidal rating", "setting": "[4]; rate 0.0156 kg/ha", "result": 5.0}, {"measurement": "GLXMAW herbicidal rating", "setting": "[4]; rate 0.0313 kg/ha", "result": 7.0}, {"measurement": "GLXMAW herbicidal rating", "setting": "[4]; rate 0.0625 kg/ha", "result": 8.5}, {"measurement": "GLXMAW herbicidal rating", "setting": "[4]; rate 0.1250 kg/ha", "result": 8.0}, {"measurement": "CHEAL herbicidal rating", "setting": "[5]; rate 0.0156 kg/ha", "result": 9.0}, {"measurement": "CHEAL herbicidal rating", "setting": "[5]; rate 0.0313 kg/ha", "result": 9.0}, {"measurement": "CHEAL herbicidal rating", "setting": "[5]; rate 0.0625 kg/ha", "result": 9.0}, {"measurement": "CHEAL herbicidal rating", "setting": "[5]; rate 0.1250 kg/ha", "result": 9.0}, {"measurement": "CASOB herbicidal rating", "setting": "CASOB (Sicklepod) [6]; rate 0.0156 kg/ha", "result": 0.0}, {"measurement": "CASOB herbicidal rating", "setting": "CASOB (Sicklepod) [6]; rate 0.0313 kg/ha", "result": 3.0}, {"measurement": "CASOB herbicidal rating", "setting": "CASOB (Sicklepod) [6]; rate 0.0625 kg/ha", "result": 7.0}, {"measurement": "CASOB herbicidal rating", "setting": "CASOB (Sicklepod) [6]; rate 0.1250 kg/ha", "result": 9.0}, {"measurement": "CASOB preemergence herbicidal rating", "setting": "CASOB (Sicklepod) [7]; rate 0.0156 kg/ha", "result": 0.0}, {"measurement": "CASOB preemergence herbicidal rating", "setting": "CASOB (Sicklepod) [7]; rate 0.0313 kg/ha", "result": 0.0}, {"measurement": "CASOB preemergence herbicidal rating", "setting": "CASOB (Sicklepod) [7]; rate 0.0625 kg/ha", "result": 4.5}, {"measurement": "CASOB preemergence herbicidal rating", "setting": "CASOB (Sicklepod) [7]; rate 0.1250 kg/ha", "result": 4.5}, {"measurement": "CASOB preemergence herbicidal rating", "setting": "CASOB (Sicklepod) [7]; rate 0.2500 kg/ha", "result": 6.0}, {"measurement": "GLXMAW preemergence herbicidal rating", "setting": "[8]; rate 0.0156 kg/ha", "result": 1.5}, {"measurement": "GLXMAW preemergence herbicidal rating", "setting": "[8]; rate 0.0313 kg/ha", "result": 2.0}, {"measurement": "GLXMAW preemergence herbicidal rating", "setting": "[8]; rate 0.0625 kg/ha", "result": 3.5}, {"measurement": "GLXMAW preemergence herbicidal rating", "setting": "[8]; rate 0.1250 kg/ha", "result": 6.5}, {"measurement": "GLXMAW preemergence herbicidal rating", "setting": "[8]; rate 0.2500 kg/ha", "result": 9.0}, {"measurement": "TRZAWR herbicidal rating", "setting": "[9]; rate 0.0156 kg/ha", "result": 5.5}, {"measurement": "TRZAWR herbicidal rating", "setting": "[9]; rate 0.0313 kg/ha", "result": 7.0}, {"measurement": "TRZAWR herbicidal rating", "setting": "[9]; rate 0.0625 kg/ha", "result": 7.5}, {"measurement": "TRZAWR herbicidal rating", "setting": "[9]; rate 0.1250 kg/ha", "result": 7.5}, {"measurement": "Herbicidal rating SAGPY", "setting": "[10]; 0.0313 kg/ha", "result": 0.0}, {"measurement": "Herbicidal rating SAGPY", "setting": "[10]; 0.0625 kg/ha", "result": 1.0}, {"measurement": "Herbicidal rating SAGPY", "setting": "[10]; 0.1250 kg/ha", "result": 4.0}, {"measurement": "Herbicidal rating SAGPY", "setting": "[10]; 0.2500 kg/ha", "result": 0.0}, {"measurement": "ORYSAT preemergence herbicidal rating", "setting": "ORYSAT (Rice, Tebonnet); rate 0.0156 kg/ha", "result": 0.0}, {"measurement": "ORYSAT preemergence herbicidal rating", "setting": "ORYSAT (Rice, Tebonnet); rate 0.0313 kg/ha", "result": 1.0}, {"measurement": "ORYSAT preemergence herbicidal rating", "setting": "ORYSAT (Rice, Tebonnet); rate 0.0625 kg/ha", "result": 4.0}, {"measurement": "ORYSAT preemergence herbicidal rating", "setting": "ORYSAT (Rice, Tebonnet); rate 0.1250 kg/ha", "result": 7.0}, {"measurement": "ORYSAT preemergence herbicidal rating", "setting": "ORYSAT (Rice, Tebonnet); rate 0.2500 kg/ha", "result": 7.0}, {"measurement": "CHEAL preemergence herbicidal rating", "setting": "[11]; rate 0.0156 kg/ha", "result": 9.0}, {"measurement": "CHEAL preemergence herbicidal rating", "setting": "[11]; rate 0.0313 kg/ha", "result": 9.0}, {"measurement": "CHEAL preemergence herbicidal rating", "setting": "[11]; rate 0.0625 kg/ha", "result": 9.0}, {"measurement": "CHEAL preemergence herbicidal rating", "setting": "[11]; rate 0.1250 kg/ha", "result": 9.0}, {"measurement": "CHEAL preemergence herbicidal rating", "setting": "[11]; rate 0.2500 kg/ha", "result": 9.0}, {"measurement": "IPOHE herbicidal rating", "setting": "[12]; rate 0.0156 kg/ha", "result": 9.0}, {"measurement": "IPOHE herbicidal rating", "setting": "[12]; rate 0.0313 kg/ha", "result": 9.0}, {"measurement": "IPOHE herbicidal rating", "setting": "[12]; rate 0.0625 kg/ha", "result": 9.0}, {"measurement": "IPOHE herbicidal rating", "setting": "[12]; rate 0.1250 kg/ha", "result": 9.0}]}]}
